≈ marks a conversion by molar mass, not a printed value.
Tests used:
[1] = tested on: Staphylococcus haemolyticus 105; assay: broth micro-dilution MIC; format: cell-based
Description: (§1) The formula I compounds have in vitro and in vivo activity against Gram-positive pathogenic bacteria. The MIC's were determined using a standard broth micro-dilution assay.

[2] = tested on: Enterococcus gallinarum 245; assay: broth micro-dilution MIC; format: cell-based; settings: Enterococcus gallinarum 245
Description: as §1

[3] = tested on: Staphylococcus epidermidis 270; assay: broth micro-dilution MIC; format: cell-based
Description: as §1

Entercoccus faecium 2041 = assay: broth micro-dilution MIC; format: cell-based; settings: Entercoccus faecium 2041
Description: as §1

[4] = tested on: Staphylococcus haemolyticus 415; assay: broth micro-dilution MIC; format: cell-based
Description: as §1

[5] = tested on: Streptococcus pneumoniae P1; assay: broth micro-dilution MIC; format: cell-based
Description: as §1

Entercoccus faecium 180 = assay: broth micro-dilution MIC; format: cell-based; settings: Entercoccus faecium 180
Description: as §1

[6] = tested on: vancomycin-susceptible enterococci; assay: broth micro-dilution, mean geometric MIC; format: cell-based, Enterococcus faecium and Enterococcus faecalis; settings: enterococci, 24-hour incubation
[7] = tested on: Staphylococcus aureus SA1199B; format: cell-based
Description: (§2) The MIC's were determined using a standard broth micro-dilution assay.

[8] = tested on: Staphylococcus aureus S13E; format: cell-based
Description: as §2

[9] = tested on: Staphylococcus aureus X778; assay: broth micro-dilution MIC; format: cell-based
Description: as §2

[10] = tested on: Staphylococcus aureus 491; assay: broth micro-dilution MIC; format: cell-based
Description: as §2

[11] = tested on: Staphylococcus aureus SA1199; assay: broth micro-dilution MIC; format: cell-based
Description: as §2

[12] = tested on: Staphylococcus aureus SA1199A; assay: broth micro-dilution MIC; format: cell-based
Description: as §2

[13] = tested on: Staphylococcus aureus 489; assay: broth micro-dilution MIC; format: cell-based
Description: as §2

[14] = tested on: Staphylococcus aureus X400; assay: broth micro-dilution MIC; format: cell-based
Description: as §2

[15] = tested on: Entercoccus faecium 180-1; assay: broth micro-dilution MIC; format: cell-based
Description: as §2

[16] = tested on: Staphylococcus aureus 446; assay: broth micro-dilution MIC; format: cell-based
Description: as §2

Entercoccus faecium 276 = assay: broth micro-dilution MIC; format: cell-based
Description: as §2

[17] = tested on: Staphylococcus aureus 447; assay: broth micro-dilution MIC; format: cell-based
Description: as §2

[18] = tested on: Streptococcus pyogenes C203; assay: broth micro-dilution MIC; format: cell-based
Description: as §2

[19] = tested on: vancomycin-resistant enterococci; assay: broth micro-dilution, mean geometric MIC; format: cell-based, Enterococcus faecium and Enterococcus faecalis; settings: enterococci, 24-hour incubation

Compound	MIC [1] [µg/mL]	MIC [2] [µg/mL]	MIC [3] [µg/mL]	MIC (Entercoccus faecium 2041) [µg/mL]	MIC [4] [µg/mL]	MIC [5] [µg/mL]	MIC (Entercoccus faecium 180) [µg/mL]	MIC [7] [µg/mL]	MIC [8] [µg/mL]	MIC [9] [µg/mL]	MIC [10] [µg/mL]	MIC [11] [µg/mL]	MIC [12] [µg/mL]	MIC [13] [µg/mL]	MIC [14] [µg/mL]	MIC [15] [µg/mL]	MIC [16] [µg/mL]	MIC (Entercoccus faecium 276) [µg/mL]	MIC [17] [µg/mL]	MIC [18] [µg/mL]	other results
CNC(CC(C)C)C(=O)NC1C(=O)NC(CC(N)=O)C(=O)NC2C(=O)NC3C(=O)NC(C(=O)NC(C(=O)O)c4cc(O)cc(O)c4-c4cc3ccc4O)C(OC3CC(C)(N)C(O)C(C)O3)c3ccc(c(Cl)c3)Oc3cc2cc(c3OC2OC(CO)C(O)C(O)C2OC2CC(C)(NCc3cc4ccccc4c4ccccc34)C(O)C(C)O2)Oc2ccc(cc2Cl)C1O (stereo not drawn) [Compound 11]	4 (≈ 2.24 µM)	≤ 0.06	2 (≈ 1.12 µM)	0.5 (≈ 0.28 µM)	2 (≈ 1.12 µM)	≤ 0.06	1 (≈ 0.561 µM)	2 (≈ 1.12 µM)	0.5 (≈ 0.28 µM)	0.25 (≈ 0.14 µM)	1 (≈ 0.561 µM)	2 (≈ 1.12 µM)	≤ 0.06	1 (≈ 0.561 µM)	0.5 (≈ 0.28 µM)	≤ 0.06	4 (≈ 2.24 µM)	1 (≈ 0.561 µM)	4 (≈ 2.24 µM)	≤ 0.06	mean geometric MIC, Vancomycin Sensitive Strains [6]: 0.22 µg/mL
CNC(CC(C)C)C(=O)NC1C(=O)NC(CC(N)=O)C(=O)NC2C(=O)NC3C(=O)NC(C(=O)NC(C(=O)O)c4cc(O)cc(O)c4-c4cc3ccc4O)C(OC3CC(C)(N)C(O)C(C)O3)c3ccc(c(Cl)c3)Oc3cc2cc(c3OC2OC(CO)C(O)C(O)C2OC2CC(C)(NCc3c4ccccc4cc4ccccc34)C(O)C(C)O2)Oc2ccc(cc2Cl)C1O (stereo not drawn) [Compound 13]	8 (≈ 4.49 µM)	0.25 (≈ 0.14 µM)	8 (≈ 4.49 µM)	0.125 (≈ 0.0701 µM)	1 (≈ 0.561 µM)	≤ 0.06	2 (≈ 1.12 µM)	4 (≈ 2.24 µM)	0.25 (≈ 0.14 µM)	2 (≈ 1.12 µM)	2 (≈ 1.12 µM)	0.5 (≈ 0.28 µM)	≤ 0.06	1 (≈ 0.561 µM)	1 (≈ 0.561 µM)	≤ 0.06	2 (≈ 1.12 µM)	0.5 (≈ 0.28 µM)	8 (≈ 4.49 µM)	≤ 0.06	mean geometric MIC, Vancomycin Sensitive Strains [6]: 0.76 µg/mL; mean geometric MIC, Vancomycin Resistant Strains [19]: 19 µg/mL
CNC(CC(C)C)C(=O)NC1C(=O)NC(CC(N)=O)C(=O)NC2C(=O)NC3C(=O)NC(C(=O)NC(C(=O)O)c4cc(O)cc(O)c4-c4cc3ccc4O)C(OC3CC(C)(N)C(O)C(C)O3)c3ccc(c(Cl)c3)Oc3cc2cc(c3OC2OC(CO)C(O)C(O)C2OC2CC(C)(NCc3cccnc3)C(O)C(C)O2)Oc2ccc(cc2Cl)C1O (stereo not drawn) [Compound 24]	4 (≈ 2.38 µM)	0.25 (≈ 0.148 µM)	1 (≈ 0.594 µM)	≤ 0.06	≤ 0.06	≤ 0.06	4 (≈ 2.38 µM)	2 (≈ 1.19 µM)	≤ 0.06	0.125 (≈ 0.0742 µM)	0.5 (≈ 0.297 µM)	0.5 (≈ 0.297 µM)	≤ 0.06	≤ 0.06	0.25 (≈ 0.148 µM)	≤ 0.06	0.5 (≈ 0.297 µM)	0.25 (≈ 0.148 µM)	1 (≈ 0.594 µM)	≤ 0.06	mean geometric MIC, Vancomycin Sensitive Strains [6]: 0.67 µg/mL; mean geometric MIC, Vancomycin Resistant Strains [19]: 54 µg/mL
CNC(CC(C)C)C(=O)NC1C(=O)NC(CC(N)=O)C(=O)NC2C(=O)NC3C(=O)NC(C(=O)NC(C(=O)O)c4cc(O)cc(O)c4-c4cc3ccc4O)C(OC3CC(C)(N)C(O)C(C)O3)c3ccc(c(Cl)c3)Oc3cc2cc(c3OC2OC(CO)C(O)C(O)C2OC2CC(C)(NCc3ccnc4ccccc34)C(O)C(C)O2)Oc2ccc(cc2Cl)C1O (stereo not drawn) [Compound 27]	16 (≈ 9.23 µM)	0.5 (≈ 0.288 µM)	4 (≈ 2.31 µM)	0.125 (≈ 0.0721 µM)	8 (≈ 4.61 µM)	≤ 0.06	8 (≈ 4.61 µM)	1 (≈ 0.577 µM)	0.125 (≈ 0.0721 µM)	0.5 (≈ 0.288 µM)	1 (≈ 0.577 µM)	0.5 (≈ 0.288 µM)	≤ 0.06	≤ 0.06	0.5 (≈ 0.288 µM)	0.5 (≈ 0.288 µM)	2 (≈ 1.15 µM)	0.5 (≈ 0.288 µM)	8 (≈ 4.61 µM)	≤ 0.06	mean geometric MIC, Vancomycin Sensitive Strains [6]: 1.5 µg/mL; mean geometric MIC, Vancomycin Resistant Strains [19]: 45 µg/mL
CNC(CC(C)C)C(=O)NC1C(=O)NC(CC(N)=O)C(=O)NC2C(=O)NC3C(=O)NC(C(=O)NC(C(=O)O)c4cc(O)cc(O)c4-c4cc3ccc4O)C(OC3CC(C)(N)C(O)C(C)O3)c3ccc(c(Cl)c3)Oc3cc2cc(c3OC2OC(CO)C(O)C(O)C2OC2CC(C)(NCc3ccc(OCCCC#N)cc3)C(O)C(C)O2)Oc2ccc(cc2Cl)C1O (stereo not drawn) [Compound 55]	4 (≈ 2.27 µM)	–	1 (≈ 0.566 µM)	0.125 (≈ 0.0708 µM)	–	≤ 0.06	2 (≈ 1.13 µM)	0.5 (≈ 0.283 µM)	0.5 (≈ 0.283 µM)	0.5 (≈ 0.283 µM)	0.5 (≈ 0.283 µM)	0.5 (≈ 0.283 µM)	≤ 0.06	1 (≈ 0.566 µM)	≤ 0.06	≤ 0.06	0.5 (≈ 0.283 µM)	0.5 (≈ 0.283 µM)	4 (≈ 2.27 µM)	≤ 0.06	mean geometric MIC, Vancomycin Sensitive Strains [6]: 1.7 µg/mL; mean geometric MIC, Vancomycin Resistant Strains [19]: 13 µg/mL
CNC(CC(C)C)C(=O)NC1C(=O)NC(CC(N)=O)C(=O)NC2C(=O)NC3C(=O)NC(C(=O)NC(C(=O)O)c4cc(O)cc(O)c4-c4cc3ccc4O)C(OC3CC(C)(N)C(O)C(C)O3)c3ccc(c(Cl)c3)Oc3cc2cc(c3OC2OC(CO)C(O)C(O)C2OC2CC(C)(NCc3ccc4c(c3)OCCO4)C(O)C(C)O2)Oc2ccc(cc2Cl)C1O (stereo not drawn) [Compound 56]	4 (≈ 2.3 µM)	16 (≈ 9.19 µM)	1 (≈ 0.575 µM)	0.25 (≈ 0.144 µM)	16 (≈ 9.19 µM)	≤ 0.06	2 (≈ 1.15 µM)	0.5 (≈ 0.287 µM)	0.125 (≈ 0.0718 µM)	0.125 (≈ 0.0718 µM)	0.5 (≈ 0.287 µM)	0.125 (≈ 0.0718 µM)	≤ 0.06	1 (≈ 0.575 µM)	≤ 0.06	≤ 0.06	0.5 (≈ 0.287 µM)	0.25 (≈ 0.144 µM)	2 (≈ 1.15 µM)	≤ 0.06	mean geometric MIC, Vancomycin Resistant Strains [19]: 19 µg/mL
CNC(CC(C)C)C(=O)NC1C(=O)NC(CC(N)=O)C(=O)NC2C(=O)NC3C(=O)NC(C(=O)NC(C(=O)O)c4cc(O)cc(O)c4-c4cc3ccc4O)C(OC3CC(C)(N)C(O)C(C)O3)c3ccc(c(Cl)c3)Oc3cc2cc(c3OC2OC(CO)C(O)C(O)C2OC2CC(C)(NCc3cccc(Oc4ccc(Cl)cc4)c3)C(O)C(C)O2)Oc2ccc(cc2Cl)C1O (stereo not drawn) [Compound 86]	1 (≈ 0.553 µM)	1 (≈ 0.553 µM)	1 (≈ 0.553 µM)	≤ 0.06	1 (≈ 0.553 µM)	≤ 0.06	≤ 0.06	1 (≈ 0.553 µM)	1 (≈ 0.553 µM)	1 (≈ 0.553 µM)	1 (≈ 0.553 µM)	0.5 (≈ 0.276 µM)	≤ 0.06	1 (≈ 0.553 µM)	1 (≈ 0.553 µM)	≤ 0.06	1 (≈ 0.553 µM)	≤ 0.06	0.5 (≈ 0.276 µM)	≤ 0.06	mean geometric MIC, Vancomycin Sensitive Strains [6]: 0.036 µg/mL; mean geometric MIC, Vancomycin Resistant Strains [19]: 1.4 µg/mL
